Measurements from patent publication US20040086901A1, “Database for analyzing gene function and method of analyzing gene function by dspa” (priority 2000, published 2004).

Legend:
Format in all cases: cell-based, mouse
[1] = tested on: NIH3T3 cells overexpressing Ki-ras; test: MTT cell viability, Ki-ras overexpressing cells vs parental line; settings: Ki-ras high-expressing cells / parental cell line, 3 to 4 days
Description: (§1) With regard to the function-known genes, the genes shown in the left column of Table 2 were used. With regard to the drugs, those shown in Table 1 were dissolved in DMSO to an extent of 100-fold of the maximum concentration for the search of the drugs and used. With regard to the cells, incubated NIH3T3 or ras-NIH3T3 cells were used.
(§2) Full-length cDNA of each function-known genes was incorporated into an expression vector (pRc-CMV, etc.) and transfected into NIH3T3 cells by a common method. Transformed cells were isolated using the resistance to G-418 as an index and the expression of the transfected gene in each cell was investigated by Western blotting method to select a highly expressing line.
(§3) Cell viabilities were measured according to the following procedures.
(§4) 1) From the 2nd to the 11th rows of a 96-well plate were filled with DMEM (50 μl). The 12th row was filled with 100 μl of DMEM.
(§5) 2) The 1st row was filled with 98 μl of DMEM.
(§6) 3) Drugs (2 μl each) were added into the 1st row.
(§7) 4) Continuous double-dilution was conducted from the 1st to the 9th rows. Fifty μl were taken out from the 9th row and discarded. The plate was preserved in a CO2 incubator.
(§8) 5) Cells (each high-expressing cells and the parental cell line) were detached from the medium using a trypsin solution, suspended in 10% CS-DMEM and transferred to a test tube and cell numbers (cell/ml) were counted.
(§9) 6) The cells were diluted to a concentration of 1×10^5 cells/ml, and 50 μl of the cell suspension were added to the 1st to the 11th rows of the plate followed by gently stirring.
(§10) 7) The plate was transferred to the CO2 incubator and incubated for 3 to 4 days.
(§11) 8) MTT (5 mg/ml in PBS) (10 μl) was added to the 1st to the 12th rows of the plate and incubated in the CO2 incubator at 37° C. for 4 hours.
(§12) 9) A reaction stop solution (0.04N HCl in isopropanol) (150 μl) was added followed by mixing well and being allowed to stand at room temperature for about 2 hours.
(§13) 10) Coloration of formazan which was a metabolite of the MTT dye was measured using a microplate reader. The measurement wavelength was 574 nm and the reference wavelength was 655 nm. The 10th and the 11th rows of the plate were 100% controls and the 12th row was a 0% control.
(§14) As an index for the sensitivity of highly gene-expressing cells and the parental cell line to various drugs, each of the IC40 values thereof was specified and ratios of the IC40 values were calculated. FIG. 2 and FIG. 3 are the examples where ratios of IC40 values were calculated from a curve showing the dependency on the concentration of the chemical versus the viability. After that, logarithmic values of ratios of IC40 values were calculated from each gene.

[2] = tested on: NIH3T3 cells overexpressing N-ras; test: MTT cell viability, N-ras overexpressing cells vs parental line; settings: N-ras high-expressing cells / parental cell line, 3 to 4 days
Description: as §1, §2, §3, §4, §5, §6, §7, §8, §9, §10, §11, §12, §13, §14

[3] = tested on: NIH3T3 cells overexpressing erbB2; test: MTT cell viability, erbB2 overexpressing cells vs parental line; settings: erbB2 high-expressing cells / parental cell line, 3 to 4 days
Description: as §1, §2, §3, §4, §5, §6, §7, §8, §9, §10, §11, §12, §13, §14

[4] = tested on: NIH3T3 cells overexpressing p53(wt); test: MTT cell viability, p53(wt) overexpressing cells vs parental line; settings: p53(wt) high-expressing cells / parental cell line, 3 to 4 days
Description: as §1, §2, §3, §4, §5, §6, §7, §8, §9, §10, §11, §12, §13
(§15) As an index for the sensitivity of highly gene-expressing cells and the parental cell line to various drugs, each of the IC40 values thereof was specified and ratios of the IC40 values were calculated. […] After that, logarithmic values of ratios of IC40 values were calculated from each gene.

[5] = tested on: NIH3T3 cells overexpressing m-calpain; test: MTT cell viability, m-calpain overexpressing cells vs parental line; settings: m-calpain high-expressing cells / parental cell line, 3 to 4 days
Description: as §1, §2, §3, §4, §5, §6, §7, §8, §9, §10, §11, §12, §13, §15

[6] = tested on: NIH3T3 cells overexpressing cAMP-PK-CS; test: MTT cell viability, cAMP-PK-CS overexpressing cells vs parental line; settings: cAMP-PK-CS high-expressing cells / parental cell line, 3 to 4 days
Description: as §1, §2, §3, §4, §5, §6, §7, §8, §9, §10, §11, §12, §13, §15

[7] = tested on: NIH3T3 cells overexpressing calpastatin; test: MTT cell viability, calpastatin overexpressing cells vs parental line; settings: calpastatin high-expressing cells / parental cell line, 3 to 4 days
Description: as §1, §2, §3, §4, §5, §6, §7, §8, §9, §10, §11, §12, §13, §14

[8] = tested on: NIH3T3 cells overexpressing CP-antisense; test: MTT cell viability, CP-antisense cells vs parental line; settings: 3 to 4 days
Description: as §1, §2, §3, §4, §5, §6, §7, §8, §9, §10, §11, §12, §13, §14

[9] = tested on: NIH3T3 cells overexpressing cystatin alpha; test: MTT cell viability, cystatin alpha overexpressing cells vs parental line; settings: cystatin alpha high-expressing cells / parental cell line, 3 to 4 days
Description: as §1, §2, §3, §4, §5, §6, §7, §8, §9, §10, §11, §12, §13, §14

[10] = tested on: NIH3T3 cells overexpressing caspase-1; test: MTT cell viability, caspase-1 overexpressing cells vs parental line; settings: caspase-1 high-expressing cells / parental cell line, 3 to 4 days
Description: as §1, §2, §3, §4, §5, §6, §7, §8, §9, §10, §11, §12, §13, §15

[11] = tested on: NIH3T3 cells overexpressing caspase-2; test: MTT cell viability, caspase-2 overexpressing cells vs parental line; settings: caspase-2 high-expressing cells / parental cell line, 3 to 4 days
Description: as §1, §2, §3, §4, §5, §6, §7, §8, §9, §10, §11, §12, §13, §14

[12] = tested on: NIH3T3 cells overexpressing PDGF-R; test: MTT cell viability, PDGF-R overexpressing cells vs parental line; settings: PDGF-R high-expressing cells / parental cell line, 3 to 4 days
Description: as §1, §2, §3, §4, §5, §6, §7, §8, §9, §10, §11, §12, §13, §14

[13] = tested on: NIH3T3 cells overexpressing Gluco-corticoid-R; test: MTT cell viability, Gluco-corticoid-R overexpressing cells vs parental line; settings: Gluco-corticoid-R high-expressing cells / parental cell line, 3 to 4 days
Description: as §1, §2, §3, §4, §5, §6, §7, §8, §9, §10, §11, §12, §13, §15

[14] = tested on: NIH3T3 cells overexpressing STAT1; test: MTT cell viability, STAT1 overexpressing cells vs parental line; settings: STAT1 high-expressing cells / parental cell line, 3 to 4 days
Description: as §1, §2, §3, §4, §5, §6, §7, §8, §9, §10, §11, §12, §13, §15

[15] = tested on: NIH3T3 cells overexpressing CBP8; test: MTT cell viability, CBP8 overexpressing cells vs parental line; settings: CBP8 high-expressing cells / parental cell line, 3 to 4 days
Description: as §1, §2, §3, §4, §5, §6, §7, §8, §9, §10, §11, §12, §13, §14

[16] = tested on: NIH3T3 cells overexpressing JNK-DN; test: MTT cell viability, JNK-DN overexpressing cells vs parental line; settings: JNK-DN high-expressing cells / parental cell line, 3 to 4 days
Description: as §1, §2, §3, §4, §5, §6, §7, §8, §9, §10, §11, §12, §13, §14

[17] = tested on: NIH3T3 cells overexpressing HNF3b; test: MTT cell viability, HNF3b overexpressing cells vs parental line; settings: HNF3b high-expressing cells / parental cell line, 3 to 4 days
Description: as §1, §2, §3, §4, §5, §6, §7, §8, §9, §10, §11, §12, §13, §15

[18] = tested on: NIH3T3 cells overexpressing coup; test: MTT cell viability, coup overexpressing cells vs parental line; settings: coup high-expressing cells / parental cell line, 3 to 4 days
Description: as §1, §2, §3, §4, §5, §6, §7, §8, §9, §10, §11, §12, §13, §14

[19] = tested on: NIH3T3 cells overexpressing p33/ING1; test: MTT cell viability, p33/ING1 overexpressing cells vs parental line; settings: p33/ING1 high-expressing cells / parental cell line, 3 to 4 days
Description: as §1, §2, §3, §4, §5, §6, §7, §8, §9, §10, §11, §12, §13, §14

[20] = tested on: NIH3T3 cells overexpressing T.Tn; test: MTT cell viability, T.Tn overexpressing cells vs parental line; settings: T.Tn high-expressing cells / parental cell line, 3 to 4 days
Description: as §1, §2, §3, §4, §5, §6, §7, §8, §9, §10, §11, §12, §13, §15

| Compound | logarithmic value of ratio of IC40 values [1] | logarithmic value of ratio of IC40 values [2] | logarithmic value of ratio of IC40 values [3] | logarithmic value of ratio of IC40 values [4] | logarithmic value of ratio of IC40 values [5] | logarithmic value of ratio of IC40 values [6] | logarithmic value of ratio of IC40 values [7] | logarithmic value of ratio of IC40 values [8] | logarithmic value of ratio of IC40 values [9] | logarithmic value of ratio of IC40 values [10] | logarithmic value of ratio of IC40 values [11] | logarithmic value of ratio of IC40 values [12] | logarithmic value of ratio of IC40 values [13] | logarithmic value of ratio of IC40 values [14] | logarithmic value of ratio of IC40 values [15] | logarithmic value of ratio of IC40 values [16] | logarithmic value of ratio of IC40 values [17] | logarithmic value of ratio of IC40 values [18] | logarithmic value of ratio of IC40 values [19] | logarithmic value of ratio of IC40 values [20] |
| --- | --- | --- | --- | --- | --- | --- | --- | --- | --- | --- | --- | --- | --- | --- | --- | --- | --- | --- | --- | --- |
| sodium vanadate | −0.30 | −0.09 | −0.40 | 0.00 | −0.10 | 0.00 | 0.00 | 0.04 | 0.08 | −0.11 | 0.40 | 0.22 | 0.03 | 0.00 | 0.03 | −0.17 | 0.22 | −0.10 | −0.30 | 0.46 |
| C/C=C(/C)C(=O)O[C@H]1C(C)=C2[C@H]([C@@H]1OC(=O)CCCCCCC)[C@@](C)(OC(C)=O)C[C@H](OC(=O)CCC)[C@@]1(O)[C@H]2OC(=O)[C@@]1(C)O [Thapsigargin, thapsigargin] | −0.05 | 0.08 | 0.11 | −0.05 | 0.05 | 0.05 | 0.046 | −0.30 | 0.04 | −0.30 | −0.07 | 0.29 | 0.20 | 0.30 | 0.12 | 0.24 | 0.24 | −0.30 | 0.49 | 0.32 |
| C=C[C@]1(C)CC[C@@H](C(=C)C)C[C@H]1C(=C)C [b-elemene, β-elemene] | −0.10 | 0.07 | −0.46 | 0.00 | 0.00 | −0.10 | 0.18 | 0.00 | 0.08 | 0.11 | 0.26 | 0.00 | 0.00 | 0.05 | 0.06 | −0.04 | −0.07 | 0.52 | −0.14 | −0.14 |
| O=[As]O [NaAsO2, sodium arsenite] | 0.08 | −0.19 | −0.15 | 0.20 | −0.16 | 0.07 | 0 | 0.02 | −0.05 | −0.21 | 0.18 | 0.14 | 0.16 | 0.16 | 0.21 | −0.07 | 0.00 | −0.19 | −0.07 | −0.05 |
| O=c1c(-c2ccc(O)cc2)coc2cc(O)cc(O)c12 [Genistein, genistein] | 0.00 | 0.42 | −0.60 | 0.26 | 0.18 | 0.00 | 0.127 | 0.00 | 0.28 | −0.12 | 0.30 | 0.32 | 0.02 | 0.10 | 0.10 | −0.10 | −0.21 | 0.44 | 0.78 | −0.25 |
| O=CN/C=C/c1cc(O)ccc1O [Erbstatin, erbstatin] | 0.04 | −0.22 | −0.05 | 0.17 | 0.00 | 0.05 | −0.2 | 0.06 | 0.08 | −0.22 | −0.07 | – | 0.06 | 0.04 | 0.14 | 0.11 | −0.03 | 0.33 | 0.11 | 0.48 |
